Assays:
USP1-UAF1 complex [1] = biological target: T1, USP1-UAF1 complex (Homo sapiens, UniProt O94782); details: 1.2 µM
Experimental: (§1) Biochemical Assay: The compounds were evaluated for their potential to inhibit USP1-UAF1 complex (Boston Biochem, Catalog: E568-050) using a fluorescence-based assay. The final concentrations of USP1-UAF1 complex protein and substrate Ubiquitin-Rhodamine-110 (R&D systems, Catalog U-555-050) used in the assay were 0.45 and 150 nM respectively. 50 mM HEPES pH. 7.5, 100 mM NaCl, 0.5 mM EDTA, 1 mM TCEP, 10% BSA, 0.01% Tween 20 buffer was used in the assay. The total assay volume was 20 μL. […] The final DMSO concentration in the assay was 1%. The compounds were pre-incubated with USP1-UAF1 complex at 25° C. for 15 min. After preincubation, required concentration of substrate was added and incubated at 25° C. for 60 min. Fluorescence at Excitation: 485 nm, Emission: 535 nm was measured in Victor-5 from Perkin Elmer.
(§2) To determine IC50 values, dose response curves were generated by plotting percentage inhibition as a function of inhibitor concentration and the data was fitted to sigmoidal non-linear regression equation (variable slope) using Graph Pad prism software V8.
(§3) The compounds were screened by the above-mentioned assay procedure.

USP1-UAF1 complex [2] = biological target: T1, USP1-UAF1 complex; test: biochemical
Experimental: as §1, §2, §3

T1 sequence (O94782 whole entry): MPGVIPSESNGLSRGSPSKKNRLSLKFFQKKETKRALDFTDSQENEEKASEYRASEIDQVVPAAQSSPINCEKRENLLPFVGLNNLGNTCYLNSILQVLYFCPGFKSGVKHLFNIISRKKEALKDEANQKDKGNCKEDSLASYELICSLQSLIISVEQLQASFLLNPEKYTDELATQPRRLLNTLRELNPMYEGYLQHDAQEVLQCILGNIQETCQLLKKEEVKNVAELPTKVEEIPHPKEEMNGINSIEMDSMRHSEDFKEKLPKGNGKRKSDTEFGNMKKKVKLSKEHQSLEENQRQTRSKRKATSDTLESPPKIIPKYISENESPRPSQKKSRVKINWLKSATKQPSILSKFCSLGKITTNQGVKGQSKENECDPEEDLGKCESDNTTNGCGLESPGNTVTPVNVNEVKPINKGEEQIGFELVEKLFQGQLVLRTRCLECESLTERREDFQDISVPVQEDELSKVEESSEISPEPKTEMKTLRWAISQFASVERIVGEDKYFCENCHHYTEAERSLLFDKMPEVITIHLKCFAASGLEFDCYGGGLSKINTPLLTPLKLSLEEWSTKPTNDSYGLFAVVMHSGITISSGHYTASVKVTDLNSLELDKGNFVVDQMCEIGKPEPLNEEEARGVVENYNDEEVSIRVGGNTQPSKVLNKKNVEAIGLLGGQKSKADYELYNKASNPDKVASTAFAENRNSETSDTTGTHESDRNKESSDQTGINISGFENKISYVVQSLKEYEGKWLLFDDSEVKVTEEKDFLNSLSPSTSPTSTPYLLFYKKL
T1 sequence (Q8TAF3 whole entry partner): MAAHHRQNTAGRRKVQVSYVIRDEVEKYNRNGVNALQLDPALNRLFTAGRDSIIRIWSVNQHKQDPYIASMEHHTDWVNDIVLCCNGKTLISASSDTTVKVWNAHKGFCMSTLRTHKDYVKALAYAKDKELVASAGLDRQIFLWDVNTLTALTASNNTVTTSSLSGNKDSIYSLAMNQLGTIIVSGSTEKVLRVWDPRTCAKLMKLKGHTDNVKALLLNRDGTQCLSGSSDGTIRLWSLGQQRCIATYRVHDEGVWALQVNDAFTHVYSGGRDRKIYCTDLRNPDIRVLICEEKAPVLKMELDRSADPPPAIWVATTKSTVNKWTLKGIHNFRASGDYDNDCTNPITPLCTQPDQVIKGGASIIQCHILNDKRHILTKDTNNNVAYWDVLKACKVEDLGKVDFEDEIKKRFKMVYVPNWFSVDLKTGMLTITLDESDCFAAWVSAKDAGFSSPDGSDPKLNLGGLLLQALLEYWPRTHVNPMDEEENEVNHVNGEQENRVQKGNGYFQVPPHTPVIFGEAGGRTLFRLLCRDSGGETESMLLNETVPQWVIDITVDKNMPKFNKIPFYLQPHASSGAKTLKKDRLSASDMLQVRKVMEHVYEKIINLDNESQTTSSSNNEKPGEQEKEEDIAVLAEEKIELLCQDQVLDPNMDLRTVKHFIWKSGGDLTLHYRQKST

SMILES	inhibition (USP1-UAF1 complex [1]) [%]	IC50 (USP1-UAF1 complex [2]) [nM]
COc1ncnc(C2CC2)c1-c1nn(Cc2ccccc2)c2c1CN(c1ccc(-c3nc(C(F)(F)F)cn3C)cn1)CC2 [Compound 37, 1-benzyl-3-(4-cyclopropyl-6-methoxypyrimidin-5-yl)-5-(5-(1-methyl-4-(trifluoromethyl)-1H-imidazol-2-yl)pyridin-2-yl)-4,5,6,7-tetrahydro-1H-pyrazolo[4,3-c]pyridine]	98	50 to 100
Cc1cnn(C(C)C)c1-c1nn(C)c2c1CN(c1ccc(-c3nc(C(F)(F)F)cn3C)cc1)CC2 [Compound 61, 3-(1-isopropyl-4-methyl-1H-pyrazol-5-yl)-1-methyl-5-(4-(1-methyl-4-(trifluoromethyl)-1H-imidazol-2-yl)phenyl)-4,5,6,7-tetrahydro-1H-pyrazolo[4,3-c]pyridine]	98	< 50
CCOc1ncnc(C2CC2)c1-c1nn(C)c2c1CN(c1ccc(-c3nc(C(F)(F)F)cn3C)cc1)CC2 [Compound 58, 3-(4-cyclopropyl-6-ethoxypyrimidin-5-yl)-1-methyl-5-(4-(1-methyl-4-(trifluoromethyl)-1H-imidazol-2-yl)phenyl)-4,5,6,7-tetrahydro-1H-pyrazolo[4,3-c]pyridine]	98	< 50
CC(C)c1ncccc1-c1nn(C)c2c1CN(c1ccc(-c3nc(C(F)(F)F)cn3C)nc1)CC2 [Compound 4, 3-(2-isopropylpyridin-3-yl)-1-methyl-5-(6-(1-methyl-4-(trifluoromethyl)-1H-imidazol-2-yl)pyridin-3-yl)-4,5,6,7-tetrahydro-1H-pyrazolo[4,3-c]pyridine]	81	> 100
COc1ncnc(C2CC2)c1-c1nn(C)c2c1CN(c1ncc(-c3nc(C(F)(F)F)cn3C)cn1)CC2 [Compound 59, 3-(4-cyclopropyl-6-methoxypyrimidin-5-yl)-1-methyl-5-(5-(1-methyl-4-(trifluoromethyl)-1H-imidazol-2-yl)pyrimidin-2-yl)-4,5,6,7-tetrahydro-1H-pyrazolo[4,3-c]pyridine]	95	50 to 100
CCn1nc(-c2c(OC)ncnc2C2CC2)c2c1CCN(c1ccc(-c3nc(C(F)(F)F)cn3C)nc1)C2 [Compound 25, 3-(4-cyclopropyl-6-methoxypyrimidin-5-yl)-1-ethyl-5-(6-(1-methyl-4-(trifluoromethyl)-1H-imidazol-2-yl)pyridin-3-yl)-4,5,6,7-tetrahydro-1H-pyrazolo[4,3-c]pyridine]	92	> 100
COc1ncnc(C2CC2)c1-c1n[nH]c2c1CN(c1ccc(-c3nc(C(F)(F)F)cn3C)cn1)CC2 [Compound 54, 3-(4-cyclopropyl-6-methoxypyrimidin-5-yl)-5-(5-(1-methyl-4-(trifluoromethyl)-1H-imidazol-2-yl)pyridin-2-yl)-4,5,6,7-tetrahydro-1H-pyrazolo[4,3-c]pyridine]	91	> 100
COc1ncnc(C2CC2)c1-c1nn(C)c2c1CN(c1ccc(-c3nc(C(F)(F)F)cn3C3CN(C)C3)cc1)CC2 [Compound 11, 3-(4-cyclopropyl-6-methoxypyrimidin-5-yl)-1-methyl-5-(4-(1-(1-methylazetidin-3-yl)-4-(trifluoromethyl)-1H-imidazol-2-yl)phenyl)-4,5,6,7-tetrahydro-1H-pyrazolo[4,3-c]pyridine]	86	> 100
COc1ncnc(C2CC2)c1-c1nn(C)c2c1CN(c1ccc(-c3nc(C(F)(F)F)cn3C(C)C)cc1)CC2 [Compound 6, 3-(4-cyclopropyl-6-methoxypyrimidin-5-yl)-5-(4-(1-isopropyl-4-(trifluoromethyl)-1H-imidazol-2-yl)phenyl)-1-methyl-4,5,6,7-tetrahydro-1H-pyrazolo[4,3-c]pyridine]	100	< 50
COc1ncnc(C2CC2)c1-c1nn(C(C)C)c2c1CN(c1ccc(-c3nc(C(F)(F)F)cn3C)cc1)CC2 [Compound 27, 3-(4-cyclopropyl-6-methoxypyrimidin-5-yl)-1-isopropyl-5-(4-(1-methyl-4-(trifluoromethyl)-1H-imidazol-2-yl)phenyl)-4,5,6,7-tetrahydro-1H-pyrazolo[4,3-c]pyridine]	98	< 50
COc1ncnc(C2CC2)c1-c1nn(C)c2c1CN(c1ccc(-c3nc(C(F)(F)F)cn3C)cc1)CC2(C)C [Compound 41, 3-(4-cyclopropyl-6-methoxypyrimidin-5-yl)-1,7,7-trimethyl-5-(4-(1-methyl-4-(trifluoromethyl)-1H-imidazol-2-yl)phenyl)-4,5,6,7-tetrahydro-1H-pyrazolo[4,3-c]pyridine]	100	< 50

Other lines, results leading:

inhibition (USP1-UAF1 complex [1]) [%]	IC50 (USP1-UAF1 complex [2]) [nM]	SMILES
90	50 to 100	COc1ncnc(C2CC2)c1-c1nn(C2CCC2)c2c1CN(c1ccc(-c3nc(C(F)(F)F)cn3C)cc1)CC2 [Compound 33, 1-cyclobutyl-3-(4-cyclopropyl-6-methoxypyrimidin-5-yl)-5-(4-(1-methyl-4-(trifluoromethyl)-1H-imidazol-2-yl)phenyl)-4,5,6,7-tetrahydro-1 H-pyrazolo[4,3-c]pyridine]
99	50 to 100	CCn1cc(C(F)(F)F)nc1-c1ccc(N2CCc3c(c(-c4c(OC)ncnc4C4CC4)nn3C)C2)nc1 [Compound 14, 3-(4-cyclopropyl-6-methoxypyrimidin-5-yl)-5-(5-(1-ethyl-4-(trifluoromethyl)-1H-imidazol-2-yl)pyridin-2-yl)-1-methyl-4,5,6,7-tetrahydro-1H-pyrazolo[4,3-c]pyridine]
99	< 50	CCOc1cc(C(F)(F)F)nn1-c1ccc(N2CCc3c(c(-c4c(OC)ncnc4C4CC4)nn3C)C2)cc1 [Compound 20, 3-(4-cyclopropyl-6-methoxypyrimidin-5-yl)-5-(4-(5-ethoxy-3-(trifluoromethyl)-1H-pyrazol-1-yl)phenyl)-1-methyl-4,5,6,7-tetrahydro-1H-pyrazolo[4,3-c]pyridine]
42	> 100	COc1ncnc(C2CC2)c1-c1nn(C)c2c1CN(c1ccc(-c3nn(C)c4c3CN(C)CC4)cc1)CC2 [Compound 53, 3-(4-cyclopropyl-6-methoxypyrimidin-5-yl)-5-(4-(1,5-dimethyl-4,5,6,7-tetrahydro-1H-pyrazolo[4,3-c]pyridin-3-yl)phenyl)-1-methyl-4,5,6,7-tetrahydro-1H-pyrazolo[4,3-c]pyridine]
92	< 50	COc1nccc(C2CC2)c1-c1nn(C)c2c1CN(c1ccc(-c3nc(C(F)(F)F)cn3C)cc1)CC2 [Compound 60, 3-(4-cyclopropyl-2-methoxypyridin-3-yl)-1-methyl-5-(4-(1-methyl-4-(trifluoromethyl)-1H-imidazol-2-yl)phenyl)-4,5,6,7-tetrahydro-1H-pyrazolo[4,3-c]pyridine]
87	> 100	COc1ncnc(C2CC2)c1-c1nn(C)c2c1CN(c1ccc(-c3nc(C(F)(F)F)cn3C3CNC3)cc1)CC2 [Compound 55, 5-(4-(1-(azetidin-3-yl)-4-(trifluoromethyl)-1H-imidazol-2-yl)phenyl)-3-(4-cyclopropyl-6-methoxypyrimidin-5-yl)-1-methyl-4,5,6,7-tetrahydro-1H-pyrazolo[4,3-c]pyridine]
99	< 50	COCCn1cc(C(F)(F)F)nc1-c1ccc(N2CCc3c(c(-c4c(OC)ncnc4C4CC4)nn3C)C2)cc1 [Compound 9, 3-(4-cyclopropyl-6-methoxypyrimidin-5-yl)-5-(4-(1-(2-methoxyethyl)-4-(trifluoromethyl)-1H-imidazol-2-yl)phenyl)-1-methyl-4,5,6,7-tetrahydro-1H-pyrazolo[4,3-c]pyridine]
90	> 100	COc1ncnc(C2CC2)c1-c1nn(C(C)C)c2c1CN(c1ccc(-c3nc(C(F)(F)F)cn3C)cn1)CC2 [Compound 29, 3-(4-cyclopropyl-6-methoxypyrimidin-5-yl)-1-isopropyl-5-(5-(1-methyl-4-(trifluoromethyl)-1H-imidazol-2-yl)pyridin-2-yl)-4,5,6,7-tetrahydro-1H-pyrazolo[4,3-c]pyridine]
97	< 50	COc1ncnc(C2CC2)c1-c1nn(C)c2c1CN(c1ccc(-c3nc(Cl)cn3C)cc1)CC2 [Compound 21, 5-(4-(4-chloro-1-methyl-1H-imidazol-2-yl)phenyl)-3-(4-cyclopropyl-6-methoxypyrimidin-5-yl)-1-methyl-4,5,6,7-tetrahydro-1H-pyrazolo[4,3-c]pyridine]
100	< 50	CCn1cc(C(F)(F)F)nc1-c1ccc(N2CCc3c(c(-c4c(OC)ncnc4C4CC4)nn3C)C2)cc1 [Compound 5, 3-(4-cyclopropyl-6-methoxypyrimidin-5-yl)-5-(4-(1-ethyl-4-(trifluoromethyl)-1H-imidazol-2-yl)phenyl)-1-methyl-4,5,6,7-tetrahydro-1H-pyrazolo[4,3-c]pyridine]
98	50 to 100	COc1ncnc(C2CC2)c1-c1nn(C)c2c1CN(c1ccc(-c3nc(C(F)(F)F)cn3C)cc1)CC2 [Compound 1, 3-(4-cyclopropyl-6-methoxypyrimidin-5-yl)-1-methyl-5-(4-(1-methyl-4-(trifluoromethyl)-1H-imidazol-2-yl)phenyl)-4,5,6,7-tetrahydro-1H-pyrazolo[4,3-c]pyridine]
98	< 50	COc1ncnc(C2CC2)c1-c1nn(C)c2c1CN(c1ccc(-c3nc(C(F)(F)F)cn3C)cn1)CC2 [Compound 13, 3-(4-cyclopropyl-6-methoxypyrimidin-5-yl)-1-methyl-5-(5-(1-methyl-4-(trifluoromethyl)-1H-imidazol-2-yl)pyridin-2-yl)-4,5,6,7-tetrahydro-1H-pyrazolo[4,3-c]pyridine]
90	> 100	CCn1nc(-c2c(OC)ncnc2C2CC2)c2c1CCN(c1ccc(-c3nc(C(F)(F)F)cn3C)cn1)C2 [Compound 26, 3-(4-cyclopropyl-6-methoxypyrimidin-5-yl)-1-ethyl-5-(5-(1-methyl-4-(trifluoromethyl)-1H-imidazol-2-yl)pyridin-2-yl)-4,5,6,7-tetrahydro-1H-pyrazolo[4,3-c]pyridine]

Source: US20260152498A1, “4,5,6,7-TETRAHYDRO-1H-PYRAZOLO[4,3-c]PYRIDINE COMPOUNDS AND DERIVATIVES AS USP1 INHIBITORS” (EXELIXIS, INC., priority 2022, published 2026)
